Results as given in the supplement of paper PMC8253809.

How the values were obtained:
[1] = test system: DIPGX29 (H3.3 K27M diffuse intrinsic pontine glioma line); assay: EC50 (inflection of fitted growth-inhibition curve) (log10 M)
In short: (§1)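 A pin tool was used to add a 10-point threefold dilution series (mean top concentration 35 μM), in triplicate, to patient-derived pHGG/DIPG cell lines and astrocyte controls seeded on 384-well plates coated with 1% Geltrex. After 7 days at 37 °C and 5% CO2 (3 days for iAstro), CellTiter-Glo luminescence was log2-transformed, normalised on each plate to % activity relative to negative (solvent) and positive control wells, and pooled. EC50 and maximal response (yFin) were read from the three- or four-parameter log-logistic fit with the lowest AICc.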

[2] = test system: DIPGX37 (H3.3 K27M diffuse intrinsic pontine glioma line); assay: as above
In short: as §1

[3] = test system: HGGX39 (paediatric high-grade glioma line); assay: as above
In short: as §1

[4] = test system: HGGX6 (H3.3 G34R paediatric high-grade glioma line); assay: as above
In short: as §1

[5] = test system: DIPGX29; assay: maximal growth inhibition (yFin) relative to DMSO / staurosporine; higher = more efficacious
In short: as §1

[6] = test system: DIPGX37; assay: as above
In short: as §1

[7] = test system: HGGX39; assay: as above
In short: as §1

[8] = test system: HGGX6; assay: as above
In short: as §1

[9] = test system: DIPGX29; assay: area under dose-response curve of % growth inhibition (log2 RLU vs DMSO / staurosporine), 1e-11 to 1e-4 M (% x log10 M); higher = more growth inhibition
In short: (§2)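 A 10-point threefold dilution series, mean top concentration 35 μM, was applied in triplicate to patient-derived pHGG/DIPG lines and astrocytes on 1% Geltrex-coated 384-well plates for 7 days (3 days for iAstro) at 37 °C, 5% CO2. Per-plate % activity between solvent and positive controls was calculated from log2-transformed CellTiter-Glo luminescence. Area under the curve followed from the trapezoid rule on a log-logistic fit, or on a smoothing spline when the sigmoid fit failed.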

[10] = test system: DIPGX37; assay: as above
In short: as §2

[11] = test system: HGGX39; assay: as above
In short: as §2

[12] = test system: HGGX6; assay: as above
In short: as §2

Structure (SMILES) | EC50 (log10 M) [1] | EC50 (log10 M) [2] | EC50 (log10 M) [3] | EC50 (log10 M) [4] | maximal growth inhibition [5] [%] | maximal growth inhibition [6] [%] | maximal growth inhibition [7] [%] | maximal growth inhibition [8] [%] | area under dose-response curve [9] | area under dose-response curve [10] | area under dose-response curve [11] | area under dose-response curve [12]
CCN1CCN(c2cc(-c3ccc(F)cc3)c3c(n2)CCCCCC3)CC1 [BLONANSERIN] | -5.17 | -4.93 | -4.94 | -4.81 | 53.1 | 77.4 | 85.3 | 79.5 | 63.1 | 73.5 | 81.4 | 64.4
COc1cc(NC(C)CCCN)c2ncccc2c1 (stereo not given) [PRIMAQUINE] | -5.69 | -5.5 | -5.5 | -5.38 | 72.2 | 72.9 | 75.8 | 78 | 131 | 116 | 113 | 107
Cc1cccc(CN2CCN(C(c3ccccc3)c3ccc(Cl)cc3)CC2)c1 (stereo not given) [MECLIZINE] | -4.89 | -4.83 | -4.91 | -4.86 | 41.9 | 79.1 | 48.7 | 41.1 | 42.8 | 85.1 | 44.3 | 35.5
CN(C)c1ccc(C(=C2C=CC(=[N+](C)C)C=C2)c2ccc(N(C)C)cc2)cc1 [GENTIAN VIOLET] | -5.15 | -5.13 | -4.97 | -5.16 | 128 | 124 | 121 | 112 | 158 | 152 | 164 | 133
CCCc1cc(C)[nH]c(=O)c1CNC(=O)c1cc(-c2ccc(N3CCN(C(C)C)CC3)nc2)cc2c1cnn2C(C)C [UNC1999] | -5.02 | -5.18 | -4.92 | -5.11 | 73.8 | 73.8 | 76.4 | 72.5 | 75 | 85.9 | 70.2 | 83.6
CCCCC(CC)CNC(=N)NC(=N)NCCCCCCNC(=N)NC(=N)NCC(CC)CCCC (stereo not given) [ALEXIDINE] | -6.06 | -5.67 | -5.64 | -5.48 | 63.3 | 78.2 | 80.3 | 73.3 | 130 | 126 | 126 | 105
Clc1ccc(C(Cn2ccnc2)OCc2ccsc2Cl)c(Cl)c1 (stereo not given) [TIOCONAZOLE] | -4.77 | -4.73 | -4.79 | -4.82 | 48.3 | 78 | 65.3 | 46.3 | 36.4 | 56 | 51.3 | 38.1
CNC(=O)c1ccccc1Sc1ccc2c(/C=C/c3ccccn3)n[nH]c2c1 [AXITINIB] | -6.07 |  | -5.96 | -6.35 | 21.1 |  | 23.3 | 28.6 | 45.4 | 55.3 | 46.3 | 67.6
COc1cc2c(NC3CCN(C(C)C)CC3)nc(N3CCC(F)(F)CC3)nc2cc1OCCCN1CCCC1 [UNC0642] | -4.96 | -5.19 | -4.84 | -5.05 | 74.9 | 70.6 | 74.9 | 72.8 | 71.3 | 96 | 62.5 | 75.5
CC(=O)N1CCN(c2ccc(OCC3COC(Cn4ccnc4)(c4ccc(Cl)cc4Cl)O3)cc2)CC1 (stereo not given) [KETOCONAZOLE] | -4.92 | -4.96 | -5.12 | -4.94 | 40.2 | 37.6 | 68.2 | 56.7 | 40.9 | 36.1 | 73.6 | 53.4
Cc1cc(C2CCCCC2)n(O)c(=O)c1 [CICLOPIROX] | -6.42 | -6.44 | -5.04 | -6.23 | 57.2 | 58.3 | 72.3 | 63.9 | 138 | 142 | 84.1 | 142
CC[C@@H](C(=O)[C@@H](C)[C@@H](O)[C@H](C)[C@@H]1O[C@@H]([C@@H](CC)C(=O)O)CC[C@@H]1C)[C@H]1O[C@]2(C=C[C@@H](O)[C@]3(CC[C@@](C)([C@H]4CC[C@](O)(CC)[C@H](C)O4)O3)O2)[C@H](C)C[C@@H]1C [SALINOMYCIN] | -5.32 | -6.53 | -6.01 | -5.03 | 69.7 | 62.6 | 73.9 | 60.5 | 106 | 153 | 153 | 85.6
COc1cc([C@@H]2c3cc4c(cc3[C@@H](O[C@@H]3O[C@@H]5CO[C@@H](c6cccs6)O[C@H]5[C@H](O)[C@H]3O)[C@H]3COC(=O)[C@H]23)OCO4)cc(OC)c1O [TENIPOSIDE] | -6.01 | -5.43 | -5.94 | -5.36 | 33.5 | 50.7 | 37.6 | 31.2 | 63.2 | 81.2 | 75.2 | 42.9
C[C@@H](O[C@H]1OCCN(Cc2n[nH]c(=O)[nH]2)[C@H]1c1ccc(F)cc1)c1cc(C(F)(F)F)cc(C(F)(F)F)c1 [APREPITANT] | -4.8 | -4.81 | -4.81 | -4.81 | 85.5 | 81.7 | 80 | 72.7 | 76.6 | 66.2 | 64.5 | 58.5
Cc1nc(Nc2n[nH]c3c2CN(C(=O)N[C@H](CN(C)C)c2ccccc2)C3(C)C)c2sccc2n1 | -5.45 | -5.56 | -5.22 | -5.66 | 77.2 | 80.1 | 79.6 | 75.5 | 150 | 177 | 120 | 174
CCCCc1oc2ccccc2c1C(=O)c1cc(I)c(OCCN(CC)CC)c(I)c1 [AMIODARONE] | -4.79 | -4.76 | -4.83 | -4.8 | 80 | 83 | 89.3 | 78.8 | 63.6 | 63.2 | 74.6 | 63

Structure (SMILES) | EC50 (log10 M) [1] | EC50 (log10 M) [2] | EC50 (log10 M) [3] | EC50 (log10 M) [4] | maximal growth inhibition [5] [%] | maximal growth inhibition [6] [%] | maximal growth inhibition [7] [%] | maximal growth inhibition [8] [%] | area under dose-response curve [9] | area under dose-response curve [10] | area under dose-response curve [11] | area under dose-response curve [12]
Clc1ccc(C(Cn2ccnc2)OCc2csc3c(Cl)cccc23)c(Cl)c1 (stereo not given) [SERTACONAZOLE] | -4.81 | -4.87 | -4.95 | -4.82 | 64.2 | 84.7 | 61.9 | 62.2 | 51.2 | 73.6 | 72.3 | 50.7
O=C(c1ccc(OCCN2CCCCC2)cc1)c1c(-c2ccc(O)cc2)sc2cc(O)ccc12 [RALOXIFENE] | -4.93 | -4.93 | -4.93 | -4.88 | 68.3 | 73.5 | 73.2 | 73.2 | 63.5 | 68.2 | 67.7 | 64.5
CC[C@H](C)n1cc(C)c2c(C(=O)NCc3c(C)cc(C)[nH]c3=O)cc(-c3ccc(N4CCNCC4)nc3)cc21 [GSK126] | -4.87 | -4.88 |  | -4.83 | 76.4 | 76.7 |  | 74.4 | 66.1 | 74.3 | 13.1 | 61.2
OCCN1CCN(CCCN2c3ccccc3Sc3ccc(C(F)(F)F)cc32)CC1 [FLUFENAZINE] | -4.74 | -4.74 | -4.77 | -4.76 | 61.6 | 65.2 | 65.9 | 63.5 | 45.7 | 59.8 | 64 | 67.4
COc1cccc2c1C(=O)c1c(O)c3c(c(O)c1C2=O)C[C@@](O)(C(C)=O)C[C@@H]3O[C@H]1C[C@H](N)[C@H](O)[C@H](C)O1 [DAUNORUBICIN] | -5.69 | -5.94 | -6.13 | -5.62 | 83.3 | 82.2 | 76.1 | 76.4 | 141 | 160 | 159 | 124
COc1cc2c(cc1-c1c(C)noc1C)ncc1[nH]c(=O)n([C@H](C)c3ccccn3)c12 [I-BET151] | -5.05 | -5.65 | -5.03 |  | 21.8 | 25.8 | 45 |  | 31.6 | 43.5 | 47.5 | 37.1
CN(C)CCCNC(=O)c1ccc(-c2cc(O)c3ncccc3c2)cc1 [ML324] | -4.82 |  |  | -4.67 | 43.7 |  |  | 44.1 | 35.8 | 4.39 | 14.9 | 29.4
Cc1nc2c([nH]1)-c1ccccc1N(C(=O)c1ccc(NC(=O)c3ccccc3-c3ccccc3)cc1)CC2 [CONIVAPTAN] | -4.73 | -4.59 | -4.73 |  | 26.5 | 36 | 83.9 |  | 29.9 | 35.9 | 60.9 | 6.44
CC(C)NC[C@@H](C(=O)N1CCN(c2ncnc3c2[C@H](C)C[C@H]3O)CC1)c1ccc(Cl)cc1 [IPATASERTIB] | -5.18 | -5.27 |  | -5.67 | 50.3 | 21.5 |  | 31.8 | 64.7 | 25.8 | 11.9 | 49
O=C(O)C[C@H](O)C[C@H](O)/C=C/c1c(C2CC2)nc2ccccc2c1-c1ccc(F)cc1 [PITAVASTATIN] | -5.04 |  | -6.26 | -5.36 | 49.2 |  | 92.9 | 66.4 | 75.6 | 121 | 215 | 95.1
Clc1ccc(NN=C(c2ccccc2)c2ccccn2)nc1 [JIB-04] | -5.13 |  | -5.02 | -5.07 | 47.2 |  | 34.3 | 50.7 | 63.6 | 25.7 | 34.4 | 61.4
Clc1ccccc1C(c1ccccc1)(c1ccccc1)n1ccnc1 [CLOTRIMAZOLE] | -4.92 |  | -5.21 | -5.22 | 29.5 |  | 23 | 26.3 | 27.2 | 13.3 | 27.8 | 31.5
C=C[C@]1(C)C[C@@H](OC(=O)CSC(C)(C)CNC(=O)[C@H](N)C(C)C)[C@]2(C)[C@H](C)CC[C@]3(CCC(=O)[C@H]32)[C@@H](C)[C@@H]1O [VALNEMULIN] | -4.85 | -4.79 | -5.56 |  | 55.5 | 30.2 | 30.5 |  | 59.9 | 24 | 42.1 | 12
CC[C@]1(O)C[C@@H]2CN(CCc3c([nH]c4ccccc34)[C@@](C(=O)OC)(c3cc4c(cc3OC)N(C)[C@H]3[C@@](O)(C(=O)OC)[C@H](OC(C)=O)[C@]5(CC)C=CCN6CC[C@]43[C@@H]65)C2)C1 [VINBLASTINE] | -5.63 |  |  | -5.46 | 50.4 |  |  | 23.5 | 88.8 | 58.2 | 53.5 | 58.8
CCC(CC)(NC(=O)C(C)C)C(=O)N[C@@H](CCCN=C(N)N)C(=O)NC1(C(=O)NC(c2ccc(F)cc2)c2ccc(F)cc2)CCCC1 [MM-102] | -5.17 |  |  | -5.03 | 33.9 |  |  | 63.5 | 39.7 | 6.41 | 12.2 | 65.5
S=c1[nH]cnc2nc[nH]c12 [MERCAPTOPURINE] | -6.35 |  |  | -5.3 | 20.5 |  |  | 21.1 | 44.1 | 38 | 28 | 25.5
